pIC50: −log10 of the molar value. Active and inactive are the calls of the source. The calls are words filed in the database; no cut-off is given here.
Experiment: Inhibition of ECE

CC(=O)Oc1ccc2c(c1)O[C@@H]1c3ccc4c(c3O[C@@H](OC(C)=O)[C@H]21)C=CC(C)(C)O4
Activity: inactive

CC1(C)C=Cc2c(ccc3c2O[C@@H](O)[C@@H]2c4ccc(O)cc4O[C@H]32)O1 [DALEFORMIS]
pIC50: 5.05

— ChEMBL document CHEMBL1145720, “Daleformis, a new phytoalexin from the roots fo Dalea filiciformis: an inhibitor of endothelin converting enzyme” (J Nat Prod, 1997)
